PubChem BioAssay AID330 (DTP/NCI, 2004)
Inconclusive results and toxic doses are left out. The calls were made as follows: active = survival T/C of 150% or more; inactive = T/C below 125% in these data.

Test system: P388 leukemia ip, CD2F1 mice, survival T/C
Experiment: NCI In Vivo Anticancer Drug Screen. Data for tumor model P388 Leukemia (intraperitoneal) in CD2F1 (CDF1) mice
Conditions: endpoint: median survival time, higher = longer survival
How it was run: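 Mice carrying the transplanted tumor received test compound or vehicle. Survival was recorded in each group, and the value is the treated-group measurement divided by that of the vehicle-treated control group.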

[1] = dose: 50.0 mg/kg/injection, schedule: Q01DX009 (ip), vehicle: saline
[2] = dose: 100.0 mg/kg/injection, schedule: Q01DX009 (ip), vehicle: saline
[3] = dose: 200.0 mg/kg/injection, schedule: Q01DX009 (ip), vehicle: saline
[4] = dose: 50.0 mg/kg/injection, schedule: Q01DX005 (ip), vehicle: Klucel (hydroxypropylcellulose) (HPC)
[5] = dose: 100.0 mg/kg/injection, schedule: Q01DX005 (ip), vehicle: Klucel (hydroxypropylcellulose) (HPC)
[6] = dose: 200.0 mg/kg/injection, schedule: Q01DX005 (ip), vehicle: Klucel (hydroxypropylcellulose) (HPC)
[7] = dose: 60.0 mg/kg/injection, schedule: Q01DX005 (ip), vehicle: saline with Tween-80
[8] = dose: 120.0 mg/kg/injection, schedule: Q01DX005 (ip), vehicle: saline with Tween-80
[9] = dose: 240.0 mg/kg/injection, schedule: Q01DX005 (ip), vehicle: saline with Tween-80

Measured: T/C

Cc1nsc(Br)c1[N+](=O)[O-]
inactive: dose: 25.0 mg/kg/injection, schedule: Q01DX009 (ip), vehicle: saline 105 % of control | [1] 107 % of control | [2] 107 % of control | dose: 100.0 mg/kg/injection, schedule: Q04DX003 (ip), vehicle: saline with Tween-80 103 % of control | [3] 109 % of control | dose: 200.0 mg/kg/injection, schedule: Q04DX003 (ip), vehicle: saline with Tween-80 108 % of control | dose: 400.0 mg/kg/injection, schedule: Q04DX003 (ip), vehicle: saline with Tween-80 115 % of control

Cc1c(C(=O)O)nc(C(Br)(Br)Br)[nH]c1=O
inactive: dose: 12.5 mg/kg/injection, schedule: Q01DX009 (ip), vehicle: distilled water + Tween-80 94 % of control | dose: 25.0 mg/kg/injection, schedule: Q01DX009 (ip), vehicle: distilled water + Tween-80 118 % of control | dose: 50.0 mg/kg/injection, schedule: Q01DX009 (ip), vehicle: distilled water + Tween-80 118 % of control | dose: 100.0 mg/kg/injection, schedule: Q01DX009 (ip), vehicle: distilled water + Tween-80 107 % of control | dose: 200.0 mg/kg/injection, schedule: Q01DX009 (ip), vehicle: distilled water + Tween-80 107 % of control

O=C1N(c2ccccc2)C(=O)N1c1ccccc1
inactive: dose: 25.0 mg/kg/injection, schedule: Q01DX009 (ip), vehicle: saline with Tween-80 93 % of control | dose: 50.0 mg/kg/injection, schedule: Q01DX009 (ip), vehicle: saline with Tween-80 99 % of control | dose: 100.0 mg/kg/injection, schedule: Q01DX009 (ip), vehicle: saline with Tween-80 108 % of control | dose: 200.0 mg/kg/injection, schedule: Q01DX009 (ip), vehicle: saline with Tween-80 97 % of control

CS(=O)(=O)OCC(O)C(O)CI (configuration not stated)
inactive: dose: 25.0 mg/kg/injection, schedule: Q01DX005 (ip), vehicle: saline 109 % of control | dose: 50.0 mg/kg/injection, schedule: Q01DX005 (ip), vehicle: saline 104 % of control | dose: 100.0 mg/kg/injection, schedule: Q01DX005 (ip), vehicle: saline 111 % of control

COC(=O)CC1=NNC(=O)C1
inactive: dose: 100.0 mg/kg/injection, schedule: Q01DX001 (ip), vehicle: Klucel (hydroxypropylcellulose) (HPC) 93 % of control | dose: 200.0 mg/kg/injection, schedule: Q01DX001 (ip), vehicle: Klucel (hydroxypropylcellulose) (HPC) 99 % of control | dose: 400.0 mg/kg/injection, schedule: Q01DX001 (ip), vehicle: Klucel (hydroxypropylcellulose) (HPC) 100 % of control

CC(C)(C)c1cc(C(O)(C(F)(F)F)C(F)(F)F)c(Cl)c(C(O)(C(F)(F)F)C(F)(F)F)c1
inactive: [4] 94 % of control | [5] 90 % of control | [6] 92 % of control

CC(=O)Oc1c(C)c(C)c2c(c1C)C(I)CC(C)(CCC(C)CCC(C)CCC(C)C)O2 (configuration not stated)
inactive: dose: 12.5 mg/kg/injection, schedule: Q01DX009 (ip), vehicle: saline + Tween-80 + alcohol 103 % of control | dose: 25.0 mg/kg/injection, schedule: Q01DX009 (ip), vehicle: saline + Tween-80 + alcohol 113 % of control | dose: 50.0 mg/kg/injection, schedule: Q01DX009 (ip), vehicle: saline + Tween-80 + alcohol 107 % of control | dose: 100.0 mg/kg/injection, schedule: Q01DX009 (ip), vehicle: saline + Tween-80 + alcohol 106 % of control | dose: 200.0 mg/kg/injection, schedule: Q01DX009 (ip), vehicle: saline + Tween-80 + alcohol 119 % of control | dose: 400.0 mg/kg/injection, schedule: Q01DX009 (ip), vehicle: saline + Tween-80 + alcohol 87 % of control

CCOC(=O)c1c(N)[nH]c(SSc2[nH]c(N)c(C(=O)OCC)c2C(=O)OCC)c1C(=O)OCC
inactive: dose: 75.0 mg/kg/injection, schedule: Q01DX009 (ip), vehicle: saline 118 % of control | dose: 300.0 mg/kg/injection, schedule: Q01DX009 (ip), vehicle: saline 100 % of control

CC/C(=N\NS(=O)(=O)c1ccc(C)cc1)c1ccc(Br)c(Br)c1
inactive: [1] 96 % of control | [2] 100 % of control | [3] 92 % of control

CN=C(NC)c1ccc(NC(=O)c2ccc(C(=O)Nc3ccc(C(=NC)NC)c(OC)c3)c(Cl)c2)cc1OC
inactive: dose: 0.78 mg/kg/injection, schedule: Q01DX005 (ip), vehicle: saline with Tween-80 101 % of control | dose: 1.56 mg/kg/injection, schedule: Q01DX005 (ip), vehicle: saline with Tween-80 104 % of control | dose: 3.13 mg/kg/injection, schedule: Q01DX005 (ip), vehicle: saline with Tween-80 105 % of control

CC1=C(O)C(=O)C=C2C1=CC=C1[C@@]2(C)CC[C@@]2(C)[C@@H]3C[C@](C)(C(=O)O)CC[C@]3(C)CC[C@]12C
inactive: dose: 0.19 mg/kg/injection, schedule: Q01DX009 (ip), vehicle: saline 101 % of control | dose: 0.39 mg/kg/injection, schedule: Q01DX009 (ip), vehicle: saline 101 % of control | dose: 0.78 mg/kg/injection, schedule: Q01DX009 (ip), vehicle: saline 97 % of control | dose: 1.56 mg/kg/injection, schedule: Q01DX009 (ip), vehicle: saline 87 % of control | dose: 3.12 mg/kg/injection, schedule: Q01DX009 (ip), vehicle: suspension in saline 91 % of control

COc1ncnc2c1ncn2C1CCCCO1 (configuration not stated)
inactive: dose: 50.0 mg/kg/injection, schedule: Q01DX005 (ip), vehicle: saline with Tween-80 97 % of control | dose: 100.0 mg/kg/injection, schedule: Q01DX005 (ip), vehicle: saline with Tween-80 101 % of control | dose: 200.0 mg/kg/injection, schedule: Q01DX005 (ip), vehicle: saline with Tween-80 99 % of control

Cc1ccccc1-n1c(C)nc2[nH]ncc2c1=O
inactive: [4] 105 % of control | [5] 98 % of control | [6] 96 % of control

O=C1CC2CCCCC2CC1c1ccccc1 (configuration not stated)
inactive: dose: 50.0 mg/kg/injection, schedule: Q01DX009 (ip), vehicle: Klucel (hydroxypropylcellulose) (HPC) 104 % of control | dose: 100.0 mg/kg/injection, schedule: Q01DX009 (ip), vehicle: Klucel (hydroxypropylcellulose) (HPC) 88 % of control | dose: 200.0 mg/kg/injection, schedule: Q01DX009 (ip), vehicle: Klucel (hydroxypropylcellulose) (HPC) 95 % of control

N#Cc1nc(CC(=O)c2ccccc2Cl)c(CC(=O)c2ccccc2Cl)nc1C#N
inactive: [7] 100 % of control | [8] 94 % of control | [9] 114 % of control

NNC(=O)c1ccccc1CO
inactive: [7] 96 % of control | [8] 102 % of control | [9] 113 % of control

O=c1[nH]c(=S)[nH]c2c1CN(CCCN1CCN(CCCN3CNc4[nH]c(=S)[nH]c(=O)c4C3)CC1)CN2
inactive: [4] 96 % of control | [5] 94 % of control | [6] 95 % of control
